Test results from patent publication US20080274543A1, “Neuronal Cell Propagation Using Rotating Wall Vessel” (THE ADMINISTRATORS OF THE TULANE EDUCATIONAL FUND, priority 2007, published 2008).
Values joined by “and” are separate entries in the source; they are usually repeats but may differ in a detail not shown here. Equal entries are not always repeated.

System: SY cells
Experiment: TUNEL apoptosis assay, TG-stimulated SY cells in 3-D versus 2-D culture
Type: cell-based, human
Description: SY cells (1×10^6) cultured in 2-D or 3-D were incubated with or without 10 nM TG. The 2-D and 3-D cells were harvested using trypsin, washed in PBS, and fixed for 5-10 min in 2% PFA. Prior to fixation, the 3-D-cultured cells treated inside of the RWV were separated from the beads using a 40-μm cell strainer (Becton Dickinson). The fixed cells were permeabilized in PBS/FSG/Triton and blocked with 10% NGS. Apoptosis was evaluated using the Apoptag TUNEL assay kit (Chemicon). The results were analyzed using a Leica TCS SP2 confocal microscope as described above. Cell morphology consistent with apoptosis including cell shrinkage, nuclear condensation and membrane blebbing were assessed along with the fluorescein staining for TUNEL. The number of apoptotic cells counted was divided by the total (500 minimum) number of cells counted. This protocol was also followed for evaluation of apoptosis in PC12 cells. An increased drug tolerance, 30-nM TG was used in the PC12 assay. 3-D-cultured PC12 samples were stimulated for 5 days after removal from the RWV to multi-well dishes.
Thapsigargin (TG) is known to induce apoptosis through the passive release of Ca^2+ from ER stores. These events lead to subsequent increases in cytosolic Ca^2+, stressing both the ER and the mitochondria (Elyaman et al., 2002; Nechushtan A, Smith C L, Lamensdorf I, Yoon S H, Youle R J. Bax and Bak coalesce into novel mitochondria-associated clusters during apoptosis. The Journal of cell biology, 2001; 153: 1265-76; Nguyen H N, Wang C, Perry D C. Depletion of intracellular calcium stores is toxic to SH-SY5Y neuronal cells. Brain Res, 2002; 924: 159-66; Scorrano et al., 2003; Zong W X, Li C, Hatzivassiliou G, Lindsten T, Yu Q C, Yuan J, Thompson C B. Bax and Bak can localize to the endoplasmic reticulum to initiate apoptosis. The Journal of cell biology, 2003; 162: 59-69). In order to determine inherent differences in apoptosis between the 3-D and 2-D cultured cells, the terminal uridine deoxynucleotidyl transferase dUTP nick end labeling (TUNEL) assay was used. […]

## C/C=C(/C)C(=O)O[C@H]1C(C)=C2[C@H]([C@@H]1OC(=O)CCCCCCC)[C@@](C)(OC(C)=O)C[C@H](OC(=O)CCC)[C@@]1(O)[C@H]2OC(=O)[C@@]1(C)O [TG, Thapsigargin]
3D versus ML culture
  thapsigargin-induced apoptosis in 3D cultured SH-SY5Y cells versus monolayer: notably enhanced
24 h, TG 10 nM
  degree of apoptosis in TG-stimulated versus control cells at 24 h: noticeable difference in the degree of apoptosis occurring in stimulated versus control cells was found only in the 3-D(RWV) cells
TG 10 nM, 5 days, 3-D+TG versus 2-D+TG
  increase in TUNEL-positive (apoptotic) SY cells, 3-D versus 2-D culture, when treated with TG: 4 to 7 fold and 4- to 7 fold
